Experimental data reported in ChEMBL document CHEMBL1148505, “Inhibition of Plasmodium falciparum fatty acid biosynthesis: evaluation of FabG, FabZ, and FabI as drug targets for flavonoids” (J Med Chem, 2006).
pIC50, pKi: −log10 of the molar value. Activity calls are given as the source filed them. The rule behind the calls is not given here.

Key:
Fatty acid synthase = biological target: T1, Fatty acid synthase (Plasmodium falciparum, UniProt Q965D7); assay: Inhibition of FabZ
T1 sequence (Q965D7 whole entry): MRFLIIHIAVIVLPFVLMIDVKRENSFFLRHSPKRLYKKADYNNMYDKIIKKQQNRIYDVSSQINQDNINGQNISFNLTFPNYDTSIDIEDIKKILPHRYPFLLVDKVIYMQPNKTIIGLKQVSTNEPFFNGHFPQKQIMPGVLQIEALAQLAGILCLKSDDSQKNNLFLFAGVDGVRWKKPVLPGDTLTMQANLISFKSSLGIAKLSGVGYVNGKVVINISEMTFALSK

Plasmodium falciparum [1] = assay: Antiplasmodial activity against chloroquine-sensitive Plasmodium falciparum NF54; type: functional, organism-based
[2] = biological target: T2, Enoyl-acyl-carrier protein reductase (Plasmodium falciparum) (UniProt Q965D5); assay: Inhibition of FabI at 100 uM
T2 sequence (whole entry): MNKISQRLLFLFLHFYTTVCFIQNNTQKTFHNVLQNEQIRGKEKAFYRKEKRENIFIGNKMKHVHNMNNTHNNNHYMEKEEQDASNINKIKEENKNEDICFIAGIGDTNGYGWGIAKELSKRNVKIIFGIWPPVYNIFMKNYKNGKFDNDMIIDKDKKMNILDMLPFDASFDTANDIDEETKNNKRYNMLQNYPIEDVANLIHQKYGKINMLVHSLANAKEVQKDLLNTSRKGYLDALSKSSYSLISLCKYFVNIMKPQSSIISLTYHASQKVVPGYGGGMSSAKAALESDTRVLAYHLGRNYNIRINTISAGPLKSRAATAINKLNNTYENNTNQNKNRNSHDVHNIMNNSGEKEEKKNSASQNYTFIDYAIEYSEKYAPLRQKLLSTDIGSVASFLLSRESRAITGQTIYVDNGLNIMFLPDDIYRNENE

[3] = biological target: T3, 3-oxoacyl-acyl-carrier protein reductase (Plasmodium falciparum) (UniProt Q965D6); assay: Inhibition of FabG at 100 uM
T3 sequence (whole entry): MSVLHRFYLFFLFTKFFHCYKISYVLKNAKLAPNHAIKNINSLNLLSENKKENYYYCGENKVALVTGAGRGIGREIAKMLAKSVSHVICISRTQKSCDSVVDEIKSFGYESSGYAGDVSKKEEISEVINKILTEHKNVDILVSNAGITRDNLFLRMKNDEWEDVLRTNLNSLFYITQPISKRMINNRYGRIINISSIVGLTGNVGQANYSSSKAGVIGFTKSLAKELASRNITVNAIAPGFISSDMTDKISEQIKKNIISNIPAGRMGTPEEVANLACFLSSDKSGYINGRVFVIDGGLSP

[4] = biological target: T4, Fatty acid synthase (Plasmodium falciparum) (UniProt Q965D7); assay: Inhibition of FabZ at 100 uM
T4 sequence (whole entry): T1 sequence (Q965D7 whole entry)

[5] = biological target: T5, Enoyl-acyl-carrier protein reductase (Plasmodium falciparum, UniProt Q965D5); assay: Inhibition of FabI
T5 sequence (Q965D5 whole entry): T2 sequence (whole entry)

[6] = biological target: T6, 3-oxoacyl-acyl-carrier protein reductase (Plasmodium falciparum, UniProt Q965D6); assay: Inhibition of FabG
T6 sequence (Q965D6 whole entry): T3 sequence (whole entry)

Plasmodium falciparum [7] = assay: Antiplasmodial activity against chloroquine-resistant Plasmodium falciparum K1; type: functional, organism-based
[8] = biological target: T6, 3-oxoacyl-acyl-carrier protein reductase; assay: Inhibition of FabG in presence of acetoacetyl-CoA
[9] = biological target: T6, 3-oxoacyl-acyl-carrier protein reductase; assay: Inhibition of FabG in presence of NADPH

SMILES | pIC50 (Fatty acid synthase) | pIC50 (Plasmodium falciparum [1]) | Activity [2] | Activity [3] | Activity [4] | pIC50 [5] | pKi (Fatty acid synthase) | pKi [5] | pIC50 [6] | pIC50 (Plasmodium falciparum [7]) | pKi [8] | pKi [9]
COc1cc(OC)c2c(c1C)O[C@H](c1ccccc1)CC2=O | 4.40 | 4.70 | inactive | inactive | – | – | – | – | – | – | – | –
O=c1c(O)c(-c2ccccc2)oc2ccc(O)cc12 | – | 4.44 | inactive | inactive | inactive | – | – | – | – | – | – | –
COc1cc2c(c(O)c1OC)C(=O)C[C@@H](c1ccc(O)cc1)O2 | – | 5.06 | inactive | inactive | inactive | – | – | – | – | – | – | –
COc1ccc2c(=O)cc(-c3ccccc3)oc2c1OC | – | 4.39 | inactive | inactive | inactive | – | – | – | – | – | – | –
O=c1c(O)c(-c2ccccc2)oc2cc(O)ccc12 [3,7-DIHYDROXYFLAVONE] | – | 4.31 | – | inactive | inactive | 5.00 | – | – | – | – | – | –
O=c1cc(-c2ccccc2)oc2cccc(O)c12 [5-HYDROXYFLAVONE] | – | 4.18 | inactive | inactive | inactive | – | – | – | – | – | – | –
O=c1cc(-c2ccccc2)oc2ccc(O)cc12 [6-HYDROXYFLAVONE] | 4.52 | 5.28 | inactive | inactive | – | – | – | – | – | – | – | –
O=c1cc(-c2ccccc2)oc2cc(O)ccc12 [7-HYDROXYFLAVONE] | 4.70 | 4.18 | inactive | inactive | – | – | – | – | – | – | – | –
Oc1cc(O)c2c(c1)O[C@@H](c1ccc(O)c(O)c1)[C@@H](O)C2 [(+)-EPICATECHIN] | – | < 3.82 | inactive | inactive | inactive | – | – | – | – | – | – | –
O=C(O[C@@H]1Cc2c(O)cc(O)cc2O[C@H]1c1ccc(O)c(O)c1)c1cc(O)c(O)c(O)c1 [(-)-CATECHINGALLATE] | 6.40 | 5.49 | – | – | – | 6.52 | 5.55 | 7.40 | 6.00 | 6.40 | 5.19 | 5.55
Oc1cc(O)c2c(c1)O[C@@H](c1ccc(O)c(O)c1)[C@H](O)C2 [(-)-CATECHIN] | – | < 3.82 | inactive | inactive | inactive | – | – | – | – | – | – | –
Oc1cc(O)c2c(c1)O[C@H](c1ccc(O)c(O)c1)[C@H](O)C2 [(-)-EPICATECHIN] | – | < 3.82 | inactive | inactive | inactive | – | – | – | – | – | – | –
Oc1cc(O)c2c(c1)O[C@@H](c1cc(O)c(O)c(O)c1)[C@H](O)C2 [(-)-GALLOCATECHIN] | – | < 3.82 | inactive | inactive | inactive | – | – | – | – | – | – | –
O=c1cc(-c2ccc(O)cc2)oc2cc(O)cc(O)c12 [APIGENIN] | – | 4.76 | – | inactive | inactive | 4.30 | – | – | – | – | – | –
COc1ccc(-c2coc3cc(O)cc(O)c3c2=O)cc1 [BIOCHANIN] | 5.10 | 4.46 | inactive | inactive | – | – | – | – | – | – | – | –
O=c1cc(-c2ccccc2)oc2cc(O)cc(O)c12 [CHRYSIN] | – | 4.53 | inactive | – | inactive | – | – | – | 5.00 | – | – | –
Oc1cc(O)c2c(c1)O[C@H](c1ccc(O)c(O)c1)[C@@H](O)C2 [CIANIDANOL] | – | 3.84 | inactive | inactive | inactive | – | – | – | – | – | – | –
COc1cc2oc(-c3ccc(O)cc3)cc(=O)c2c(O)c1OC [CIRSIMARITIN] | – | 4.77 | inactive | – | inactive | – | – | – | 4.15 | – | – | –
O=c1c(-c2ccc(O)cc2)coc2cc(O)ccc12 [DAIDZEIN] | 4.52 | 3.98 | inactive | inactive | – | – | – | – | – | – | – | –

SMILES | pIC50 (Fatty acid synthase) | pIC50 (Plasmodium falciparum [1]) | Activity [2] | Activity [3] | Activity [4] | pIC50 [5] | pKi (Fatty acid synthase) | pKi [5] | pIC50 [6] | pIC50 (Plasmodium falciparum [7]) | pKi [8] | pKi [9]
O=C(O[C@@H]1Cc2c(O)cc(O)cc2O[C@@H]1c1ccc(O)c(O)c1)c1cc(O)c(O)c(O)c1 [EPICATECHIN GALLATE] | 6.40 | 4.40 | – | – | – | 6.70 | – | – | 6.00 | 4.95 | – | –
Oc1cc(O)c2c(c1)O[C@H](c1cc(O)c(O)c(O)c1)[C@H](O)C2 [EPIGALLOCATECHIN] | – | < 3.82 | inactive | inactive | inactive | – | – | – | – | – | – | –
O=C(O[C@@H]1Cc2c(O)cc(O)cc2O[C@@H]1c1cc(O)c(O)c(O)c1)c1cc(O)c(O)c(O)c1 [EPIGALOCATECHIN GALLATE] | 6.40 | 4.59 | – | – | – | 6.70 | – | – | – | 5.00 | – | –
O=c1c(O)c(-c2ccc(O)c(O)c2)oc2cc(O)ccc12 [FISETIN] | 5.70 | 5.09 | – | – | – | 6.00 | – | – | 5.39 | 5.19 | – | –
O=c1cc(-c2ccccc2)oc2ccccc12 [FLAVONE] | – | 4.22 | inactive | inactive | inactive | – | – | – | – | – | – | –
O=c1c(O)c(-c2ccccc2)oc2ccccc12 [FLAVONOL] | – | 4.62 | inactive | inactive | inactive | – | – | – | – | – | – | –
O=c1c(O)c(-c2ccccc2)oc2cc(O)cc(O)c12 [GALANGIN] | – | 4.40 | inactive | – | inactive | – | – | – | 4.00 | – | – | –
O=C(O[C@@H]1Cc2c(O)cc(O)cc2O[C@H]1c1cc(O)c(O)c(O)c1)c1cc(O)c(O)c(O)c1 [GALLOCATECHIN GALLATE] | 6.22 | 4.40 | – | – | – | 6.30 | – | – | – | 5.21 | – | –
O=c1c(-c2ccc(O)cc2)coc2cc(O)cc(O)c12 [GENISTEIN] | 5.15 | 4.42 | inactive | inactive | – | – | – | – | – | – | – | –
COc1cc(O)c2c(=O)cc(-c3ccc(O)cc3)oc2c1 [GENKWANIN] | – | 3.95 | inactive | inactive | inactive | – | – | – | – | – | – | –
COc1cc(-c2oc3cc(O)cc(O)c3c(=O)c2O)ccc1O [ISORHAMNETIN] | – | 4.83 | – | – | inactive | 5.30 | – | – | 5.08 | – | – | –
O=c1c(O)c(-c2ccc(O)cc2)oc2cc(O)cc(O)c12 [KAEMPFEROL] | – | 4.52 | – | – | inactive | 4.70 | – | – | 5.40 | – | – | –
COc1ccc(-c2cc(=O)c3c(O)c(O)c(OC)cc3o2)cc1 [LADANEIN] | – | 5.05 | inactive | inactive | inactive | – | – | – | – | – | – | –
O=c1cc(-c2ccc(O)c(O)c2)oc2cc(O)cc(O)c12 [LUTEOLIN] | 5.30 | 4.97 | – | – | – | 5.70 | 4.94 | 5.68 | 5.40 | 5.02 | 5.74 | 6.10
O=c1c(O)c(-c2ccc(O)cc2O)oc2cc(O)cc(O)c12 [MORIN] | 5.10 | 3.96 | – | – | – | 5.30 | – | – | 5.64 | 4.79 | – | –
O=c1c(O)c(-c2cc(O)c(O)c(O)c2)oc2cc(O)cc(O)c12 [MYRICETIN] | 5.70 | 4.24 | – | – | – | 6.40 | – | – | 4.85 | 4.89 | – | –
O=C1C[C@@H](c2ccc(O)cc2)Oc2cc(O)cc(O)c21 [NARINGENIN] | – | 3.85 | inactive | Active | inactive | – | – | – | – | – | – | –
O=c1c(O)c(-c2ccc(O)c(O)c2)oc2cc(O)cc(O)c12 [QUERCETIN] | 5.82 | 5.00 | – | – | – | 5.82 | – | – | 5.27 | 5.05 | – | –
COc1cc(O)c2c(=O)c(OC)c(-c3ccc(OC)c(OC)c3)oc2c1 [RETUSIN] | – | 4.13 | inactive | inactive | inactive | – | – | – | – | – | – | –
